According to patent US12336991B2, “Factor XIIA inhibitors” (UNIVERSITY OF LEEDS, priority 2018, dated 2025):

Assays:
Type in all cases: biochemical
[1] = biological target: T1, FXIIa (Homo sapiens, UniProt P00748); test: Determination of Factor XIIa inhibition, chromogenic substrate S-2302 assay; conditions: human FXIIa alpha
T1 sequence (P00748 373-615 limits assumed): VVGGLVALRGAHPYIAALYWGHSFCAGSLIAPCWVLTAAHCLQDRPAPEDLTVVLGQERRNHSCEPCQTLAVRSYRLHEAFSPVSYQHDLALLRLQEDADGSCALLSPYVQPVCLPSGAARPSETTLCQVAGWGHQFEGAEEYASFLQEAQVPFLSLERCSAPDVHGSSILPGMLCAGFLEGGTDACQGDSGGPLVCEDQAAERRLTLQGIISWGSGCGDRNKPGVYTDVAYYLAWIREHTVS
T1 sequence (P00748 20-372 partner limits assumed): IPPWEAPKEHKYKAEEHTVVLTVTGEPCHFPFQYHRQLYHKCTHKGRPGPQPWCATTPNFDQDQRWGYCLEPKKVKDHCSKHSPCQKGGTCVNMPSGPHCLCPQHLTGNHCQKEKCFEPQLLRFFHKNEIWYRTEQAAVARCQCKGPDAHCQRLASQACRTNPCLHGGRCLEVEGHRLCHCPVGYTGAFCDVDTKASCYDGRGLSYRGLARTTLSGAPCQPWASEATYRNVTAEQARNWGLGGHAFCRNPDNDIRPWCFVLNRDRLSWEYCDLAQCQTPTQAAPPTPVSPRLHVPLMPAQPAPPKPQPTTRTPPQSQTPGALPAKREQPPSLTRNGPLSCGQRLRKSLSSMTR
Procedure: (§1) The activities of the compounds of the invention have been determined in vitro using the following assays protocols for the screening of activity of FXIIa and other proteases. Each of these assays were performed in a purified system employing the use of chromogenic assays in microplate plate wells. Chromogenic peptide substrates mimicking natural protein substrates are attached via an amide bond to a chromogenic group. Paranitroaniline (pNA) is released from the peptide following catalyses by the proteolytic enzyme; the absorbance increases and can be monitored at 405 nm.
(§2) All compounds were dissolved in 100% (v/v) DMSO to a stock concentration of 10 mM, the highest concentration of compound used in each assay is 500 μM. The final concentrations of DMSO were 5% (v/v) in 50 mM Tris 137 mM NaC pH 7.4. Where no test compound was added a final concentration of 5% DMSO was employed.
Determination of Factor XIa Inhibition
Factor XIa activity was measured using a chromogenic substrate S-2302 (Chromogenix). Various concentrations of compound were incubated with 10 nM of FXIIa and incubated at 37° C. for 10 minutes in 50 mM Tris, 137 mM NaCl, pH 7.4, prior to the addition of a final concentration of 450 µM S-2302 chromogenic substrate. Kinetic readings at 405 nm were monitored every 12 secs for a total duration of 3 hours at 37° C. Gradients of initial rates were determined and employed to calculate IC50 values. Values of IC50 were converted to Ki values based on the formula: Ki=IC50/(1+[Substrate]/Km).
The activity of the compounds of the invention has been categorised based on the Ki values, the categories being “*”, “**” and “***”. […] The category “**” refers to compounds with a Ki value of 0.2 μM to 2 μM.

[2] = biological target: T2, thrombin (Homo sapiens, UniProt P00734); test: Determination of selectivity: thrombin inhibition, chromogenic substrate GPR assay; conditions: fold selectivity for FXIIa over thrombin
T2 construct: FXa (5 nM) and thrombin (5 nM)
Procedure: as §1, §2
(§3) Determination of Selectivity
(§4) To determine selectivity of test compounds, these test compounds were assayed for inhibitory activity against other serine proteases including FXa and thrombin. Essentially compounds at increasing concentrations were incubated with each enzyme: FXa (5 nM) and thrombin (5 nM), for 10 mins at 37° C. followed the appropriate chromogenic substrate, S2765 ([…]), and GPR ([…]) respectively in 50 mM Tris, 137 mM NaCl, pH 7.4. Chromogenic substrates S2765 was from Chromogenix, and GPR from Bachem. Kinetic readings at 405 nm were monitored every 12 secs for a total duration of 3 hours at 37° C. Gradients of initial rates were determined and employed to calculate IC50 values. Values of IC50 were converted to Ki values based on the formula: Ki=IC50/(1+[Substrate]/Km)
(§5) Where [Substrate] denotes the concentration of substrate used in the assay and Km is the determined value of each enzyme with its own substrate.
(§6) The fold selectivity for FXIIa over thrombin for the compounds of the invention has been categorised based on the fold selectivity values, the categories being “+”, “++” and “+++”. The category “+” refers to fold selectivity values less than 10. The category “++” refers to a fold selectivity value of 10 to 100. The category “+++” refers to fold selectivity values greater than 100.

[3] = biological target: FXa (Homo sapiens, UniProt P00742); test: Determination of selectivity: FXa inhibition, chromogenic substrate S2765 assay; conditions: fold selectivity for FXIIa over FXa
FXa, sequence (P00742 235-488 limits assumed): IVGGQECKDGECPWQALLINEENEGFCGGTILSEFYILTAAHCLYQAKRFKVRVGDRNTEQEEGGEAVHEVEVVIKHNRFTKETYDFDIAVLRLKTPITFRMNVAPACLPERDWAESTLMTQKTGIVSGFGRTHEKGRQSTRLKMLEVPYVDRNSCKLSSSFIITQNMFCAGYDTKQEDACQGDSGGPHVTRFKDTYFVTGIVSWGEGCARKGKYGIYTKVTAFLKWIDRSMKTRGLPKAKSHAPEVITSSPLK
FXa, sequence (P00742 41-179 partner limits assumed): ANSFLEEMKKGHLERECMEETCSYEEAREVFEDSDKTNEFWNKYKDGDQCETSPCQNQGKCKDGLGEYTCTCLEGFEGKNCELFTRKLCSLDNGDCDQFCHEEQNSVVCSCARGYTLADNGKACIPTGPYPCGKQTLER
Procedure: as §1, §2, §3, §4, §5, §6
The fold selectivity for FXIIa over FXa for the compounds of the invention has been categorised based on the fold selectivity values, the categories being “o”, “oo” and “ooo”. The category “o” refers to fold selectivity values less than 10. The category “oo” refers to a fold selectivity value of 10 to 100. The category “ooo” refers to fold selectivity values greater than 100.

| SMILES | Ki [1] | Thrombin (human)/FXIIa alpha (human) [2] | FXa (human)/FXIIa alpha (human) [3] |
| --- | --- | --- | --- |
| COc1cc(CNC(=O)[C@@H]2C[C@H](O)CN2C(=O)[C@H](N)CCc2ccccc2)ccc1CN [Example M05056] | 200 to 2000 nM | +++ (fold selectivity values greater than 100) | ∘∘∘ |
| COc1ccc(C[C@@H]2C[C@@H](C(=O)NCc3ccc4c(c3)nnn4C)N(C(=O)[C@H]3C[C@@H](c4ccccc4)CN3)C2)cc1Cl [Example M05339] | 200 to 2000 nM | +++ (fold selectivity values greater than 100) | ∘∘∘ |
| Cn1nnc2cc(CNC(=O)[C@@H]3C[C@@H](NC(=O)c4ccccc4)CN3C(=O)[C@H](N)CCc3ccccc3)ccc21 [Example M05179] | > 2000 nM | ++ (fold selectivity value of 10 to 100) | ∘∘ |
| COc1ccc(C[C@@H]2C[C@@H](C(=O)NCc3ccc4c(c3)nnn4C)N(C(=O)[C@H]3CC(c4cnccc4C)CN3)C2)cc1 (stereo partly drawn) [Example M05408] | > 2000 nM | – | – |
| Cn1ncc2cc(CNC(=O)[C@@H]3C[C@@H](Cc4ccncc4)CN3C(=O)[C@H](N)CCC(=O)N3CCCC3)ccc21 [Example M05244] | < 200 nM | +++ (fold selectivity values greater than 100) | ∘∘∘ |
| CC(=O)N[C@H]1C[C@@H](C(=O)NCc2ccc3c(c2)nnn3C)N(C(=O)[C@H](N)CCc2ccccc2)C1 [Example M05144, (2S,4S)-4-Acetylamino-1-((R)-2-amino-4-phenyl-butyryl)-pyrrolidine-2-carboxylic acid (1-methyl-1H-benzotriazol-5-ylmethyl)-amide] | > 2000 nM | – | – |
| COc1ccc(C[C@@H]2C[C@@H](C(=O)NCc3ccc4c(c3)nnn4C)N(C(=O)[C@H](N)CCC(=O)N3CC[C@H](F)C3)C2)cc1 [Example M05400] | < 200 nM | +++ (fold selectivity values greater than 100) | ∘∘∘ |
| Cn1nnc2cc(CNC(=O)[C@@H]3CC(Cc4ccc(OC(F)(F)F)cc4)CN3C(=O)[C@H](N)CCC(=O)N3CCCC3)ccc21 (stereo partly drawn) [Example M05306, (S)-1-((R)-2-Amino-5-oxo-5-pyrrolidin-1-yl-pentanoyl)-4-(4-trifluoromethoxy-benzyl)-pyrrolidine-2-carboxylicacid (1-methyl-1H-benzotriazol-5-ylmethyl)-amide] | < 200 nM | +++ (fold selectivity values greater than 100) | ∘∘∘ |
| Cn1nnc2cc(CNC(=O)[C@@H]3C[C@H](N)CN3C(=O)[C@H](N)CCc3ccccc3)ccc21 [Example M05143] | > 2000 nM | ++ (fold selectivity value of 10 to 100) | ∘∘ |
| Cn1nnc2cc(CNC(=O)[C@@H]3C[C@H](c4ccc(F)cc4)CN3C(=O)[C@H](N)CCc3ccccc3)ccc21 [Example M05157] | > 2000 nM | ++ (fold selectivity value of 10 to 100) | ∘∘ |
| Cn1nnc2cc(CNC(=O)[C@@H]3C[C@@H](Oc4ccccc4)CN3C(=O)[C@H](N)CCc3ccccc3)ccc21 [Example M00948] | > 2000 nM | – | – |
| COc1ccc(C[C@@H]2C[C@@H](C(=O)NCc3cc4cnccc4[nH]3)N(C(=O)[C@H]3C[C@@H](C(=O)N4CCCC4(C)C)CCN3)C2)cc1 [Example M00967] | < 200 nM | +++ (fold selectivity values greater than 100) | ∘∘∘ |
| COc1ccc(C[C@@H]2C[C@@H](C(=O)NCc3ccc4c(c3)nnn4C)N(C(=O)C(N)CC(C)(C)c3ccccc3)C2)cc1 (stereo partly drawn) [Example M05416] | > 2000 nM | – | – |
| COc1ccc(C[C@@H]2C[C@@H](C(=O)NCc3ccc4c(c3)nnn4C)N(C(=O)C(N)CC(C)(C)c3ccccc3)C2)cc1 (stereo partly drawn) [Example M05415] | > 2000 nM | – | – |
| COc1ccc(C[C@@H]2C[C@@H](C(=O)NCc3ccc4c(c3)nnn4C)N(C(=O)[C@H]3CC(c4cnccc4C(F)(F)F)CN3)C2)cc1 (stereo partly drawn) [Example M05398] | > 2000 nM | – | – |
